Measurements as given in patent publication US8287888B2, “Thermosensitive polyphosphazene-bioactive molecule conjugates, preparation method thereof and use thereof” (Korea Institute of Science and Technology, priority 2006, dated 2012).

Columns and labels:
[1] = test system: human breast adenocarcinoma (MCF-7); assay: Anti-cancer activity in vitro, MTT; type: cell-based
Procedure: (§1) In order to find out anticancer activity in vitro of the poly(organophosphazene) conjugated with anti-cancer drug of the present invention, the trial as follows was performed about the human breast adenocarcinoma (MCF-7, the Korea Cell Line Bank) and the human cervix adenocarcinoma (Hela, the Korea Cell Line Bank).
(§2) For the in vitro cell experiment, in order to measure the genesistasis concentration to 50% (IC50) toward the cancer cell of the poly(organophosphazene) conjugated with anticancer drug, the analytical method using 3-(4,5-dimethylthiazol-2-yl)-2,5-diphenyl-2H-tetrazolium bromide (MTT) was performed [T. Mosmann, J. Immunol. Method, 65, (1985) 55].
(§3) The materials for to measuring were respectively melted in the DMSO (dimethylsulfoxide) of the small amount, and they were diluted to the distilled water with 200 times. The materials solution were added to the cancer cell that is MCF-7(the Korea Cell Line Bank) and Hela (the Korea Cell Line Bank). Then, they were added to 96-well microtiter plater to 1.0×10^4 cell/ml (the concentration of the cancer cell). And they were cultivated for 2, 3, 4 days, respectively, with 37° C. in 5% CO2 condition.
(§4) MTT solution (20 μl) was mixed the cultivated cell with, and they were more cultivated for 4 hours with 37° C. in 5% CO2 condition. After the upper culture medium of each cell was removed, DMSO (100 μl) was added to a well and they were shaken in the room temperature to the plate shaker with for 20 minutes, thereby dissolving the formazan crystal generated by reducing of MTT.

[2] = test system: human cervix adenocarcinoma (Hela); assay: Anti-cancer activity in vitro, MTT; type: cell-based
Procedure: as §1, §2, §3, §4

[3] = Hydrolysis of the polymer with time by GPC molecular weight; type: physicochemical; settings: 10 wt % in PBS pH 7.4, 37° C., compared among Examples 3, 4 and 9
[4] = Sol-gel phase transition with change of temperature (Brookfield rheometer); type: physicochemical
Procedure: The poly(organophosphazene) conjugated with a drug or bioactivemolecules obtained in Examples 1 to 11 were respectively dissolved in phosphate buffered saline (pH 7.4) at 4° C. so as to make solutions with concentrations of 10 wt %. The solutions were put into a chamber of a Brookfield DV-III+ Rheometer equipped with a thermostatic bath (TC-501).

[5] = 10 wt % in phosphate buffered saline (pH 7.4)

poly[(isoleucineethylester)(aminomethoxypolyethyleneglycol 550)(glycylglycine)(glycylglycyldoxorubicin)phosphazene] [Example 3]
Anti-cancer activity [IC50] ([1]; MCF-7, 2nd day): 2.294 µg/mL
Anti-cancer activity [IC50] ([1]; MCF-7, 3rd day): 0.926 µg/mL
Anti-cancer activity [IC50] ([1]; MCF-7, 4th day): 0.798 µg/mL
Anti-cancer activity [IC50] ([2]; 2nd day): 1.477 µg/mL
Anti-cancer activity [IC50] ([2]; 3rd day): 1.065 µg/mL
Anti-cancer activity [IC50] ([2]; 4th day): 0.605 µg/mL
speed of hydrolysis (reduced molecular weight by GPC) [3]: the most slowly hydrolyzed
Gel solidity (maximum viscosity of the polymer solution) [4, 5]: 158 Pa · s
Max. gelling temp. (temperature where the viscosity of the polymer solution reaches the maximum point) [4, 5]: 38 °C
viscosity in 37° C. ([4]; compared among Examples 3, 4 and 9): the highest viscosity
